In EP4624463A1, “SPIRO DERIVATIVE AS KIF18A INHIBITOR” (Insilico Medicine IP Limited, priority 2022, dated 2024):

target: T1, KIF18A (Homo sapiens, UniProt Q8NI77); test: KIF18A enzyme inhibition activity assay (ADP-Glo); assay type: biochemical; conditions: ADP-Glo kit, porcine tubulin, ATP; 10 concentration points, 3-fold serial dilution; 25°C
T1 sequence (Q8NI77 1-898): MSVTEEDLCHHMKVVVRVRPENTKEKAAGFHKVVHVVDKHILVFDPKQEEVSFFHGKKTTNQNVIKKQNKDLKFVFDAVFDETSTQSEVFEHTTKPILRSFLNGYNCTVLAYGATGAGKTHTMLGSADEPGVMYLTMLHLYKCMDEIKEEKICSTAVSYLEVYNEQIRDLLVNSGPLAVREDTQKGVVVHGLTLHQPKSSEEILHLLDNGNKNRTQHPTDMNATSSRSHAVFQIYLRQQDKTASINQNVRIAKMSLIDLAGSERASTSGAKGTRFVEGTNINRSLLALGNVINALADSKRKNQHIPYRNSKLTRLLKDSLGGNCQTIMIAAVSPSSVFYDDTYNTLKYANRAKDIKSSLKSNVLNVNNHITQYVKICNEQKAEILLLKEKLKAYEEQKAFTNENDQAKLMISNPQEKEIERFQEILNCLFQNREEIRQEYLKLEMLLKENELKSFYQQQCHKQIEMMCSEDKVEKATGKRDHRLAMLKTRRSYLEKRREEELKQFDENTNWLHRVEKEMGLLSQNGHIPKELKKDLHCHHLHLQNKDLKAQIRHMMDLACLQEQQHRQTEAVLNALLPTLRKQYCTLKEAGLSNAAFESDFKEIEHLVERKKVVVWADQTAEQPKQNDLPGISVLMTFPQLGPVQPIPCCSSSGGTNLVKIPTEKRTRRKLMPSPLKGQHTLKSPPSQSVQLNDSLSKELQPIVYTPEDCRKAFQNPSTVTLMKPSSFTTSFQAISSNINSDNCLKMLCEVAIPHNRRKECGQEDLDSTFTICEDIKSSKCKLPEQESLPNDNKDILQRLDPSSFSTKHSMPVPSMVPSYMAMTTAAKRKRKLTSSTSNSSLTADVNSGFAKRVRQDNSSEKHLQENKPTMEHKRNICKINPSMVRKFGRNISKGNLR
Method: Embodiment 6: Biological example: KIF18A enzyme inhibition activity assay
2) Steps: • 2.1 Preparation of enzyme protein buffer solution • 2.2 Activity screening • a) 40 µL of compound solution was added to a 384-well dilution plate; • b) A 3-fold serial dilution was performed to obtain 10 concentration points; • c) 0.1 µL of compound solution was transferred into a 384-well plate; • d) 5 µL of enzyme reaction solution was added and centrifuged at 1,000 RPM for 1 minute; • e) The reaction took place at 25°C for 15 minutes; • f) 5 µL of ATP reaction solution was added; • g) The reaction took place at 25°C for 60 minutes; • h) 10 µL of ADP-Glo reagent was added and centrifuged at 1,000 RPM for 1 minute; • i) The reaction took place at 25°C for 60 minutes; • j) 20 µL of detection reagent was added and centrifuged at 1,000 RPM for 1 minute; • k) The reaction took place at 25°C for 60 minutes; • l) The Envision 2104 plate reader was used to measure […]. 3) Data analysis • 3.1 Fluorescence signal values were obtained from the readings of each well • 3.2 Calculation of IC50 Concentration-response curve fitting and IC50 determination were performed using GraphPad Prism software with a four-parameter logistic regression model.

Row | IC50 | Compound
1 | 38 nM | Cc1cc(N2CC3(CCC4(CC4)CC3)c3cc(NS(=O)(=O)CCO)ccc3C2=O)nc(N2CCC(F)(F)CC2)n1 [EX02, N-{2-[2-(4,4-Difluorohexahydropyridin-1-yl)-6-methylpyrimidin-4-yl]-1-oxo-2,3-dihydro-1H-spiro[isoquinoline-4,6'-spiro[2.5]octane]-6-yl}-2-hydroxyethanesulfonamide]
2 | 44 nM | Cc1cc(N2CC3(CCC(C)(C)CC3)c3cc(NS(=O)(=O)CCO)ccc3C2=O)nc(N2CCC(F)(F)CC2)n1 [EX03, N-{2'-[2-(4,4-difluorohexahydropyridin-1-yl)-6-methylpyrimidin-4-yl]-1,1-dimethyl-1'-oxo-2',3'-dihydro-1'H-spiro[cyclohexane-4,4'-isoquinoline]-6'-yl}-2-hydroxyethanesulfonamide]
3 | 107 nM | C[C@@H]1CN(c2cccc(N3CC4(CCC5(CC5)CC4)c4cc(NS(=O)(=O)CCO)ccc4C3=O)n2)CCO1 [EX04, 2-Hydroxy-N-(2-{6-[(2R)-2-methyl-1,4-oxazinane-4-yl]pyridin-2-yl}-1-oxo-2,3-dihydro-1H-spiro[isoquinoline-4,6'-spiro[2.5]octane]-6-yl)ethanesulfonamide]

Row | Compound | IC50
4 | O=C1c2ccc(NS(=O)(=O)CCO)cc2C2(CCCCC2)CN1c1cccc(N2CCOCC2)n1 [EX01, 2-Hydroxy-N-{2'-[6-(1,4-oxazinane-4-yl)pyridin-2-yl]-1'-oxo-2',3'-dihydro-1'H-spiro[cyclohexane-1,4'-isoquinoline]-6'-yl} ethanesulfonamide] | 2030 nM
5 | O=C1c2ccc(NS(=O)(=O)CCO)cc2C2(CCC3(CC3)CC2)CN1c1ccc(=O)n(C2CC(F)(F)C2)n1 [EX05, N-{2-[1-(3,3-Difluorocyclobutyl)-6-oxo-1,2-diazacyclohexanecarbonate-3-yl]-1-oxo-2,3-dihydro-1H-spiro[isoquinoline-4,6'-spiro[2.5]octane]-6-yl}-2-hydroxyethanesulfonamide] | 8.2 nM
